# Reference: US5859067A, “Use of natural products and related synthetic compounds for the treatment of cardiovascular disease” (priority 1993, dated 1999)
# Where “and” joins values, the source holds several entries; their conditions need not be identical. Identical values can stand only once. Like-named read-outs stand apart in the source and are kept apart here.
# Assays:
# [1] = tested on: brine shrimp (Artemia salina Leach); experiment: Brine shrimp toxicity bioassay; type: in vivo; details: for LC50: read-out: LC50 brine shrimp
# Description: There are many applications of the assay including analysis of toxic substances, anaesthetics, morphine-like substances and cocarcinogenicity of phorbol esters.
# 6 (K Hostettman, ed.), Academ Press, London, 1-32. DMSO solutions of the substances to be tested were added directly to the vials containing the brine shrimp. As the concentration of DMSO that we wished to use was higher than the recommended 1% v/v testing of the toxicity of the DMSO was therefore necessary.
# Brine shrimp toxicity was assayed, except for some minor modifications, according to the method of McLaughlin et al as reported in Brine Shrimp: A convenient general bioassay for active plant constituents, B N Meyer, N R Ferrigni, J E Putman, L B Jacobsen, D E Nhols and J L McLaughlin. […] J L McLaughlin. […] 6 (K Hostettman, ed.), Academ Press, London, 1-32. Ten shrimp were added transferred to each of the vials and the volume adjusted to 4.9 mL. Each dose was performed in triplicate, including the control. In quick succession, the appropriate volume of additional DMSO for each dose, required to achieve a final concentration of 2%, was added before the appropriate volume of test solution. The vials were gently mixed and the time noted. After 24 hours, the number of survivors were counted and % mortality was determined.
# The LC50 values were expressed in both μM and μg/mL.
# [2] = biological target: T1, human erythrocyte plasma membrane Ca^2+ -ATPase (Homo sapiens, UniProt P23634); experiment: Ca^2+ -ATPase assay (erythrocyte membranes; Table 1); type: biochemical; details: for inhibition at 100 µM / inhibition at 50 µM: read-out: INHIBITION OF Ca^2+ -ATPase PERCENT (%)
# T1 construct: Calmodulin-depleted erythrocyte membranes were prepared by continuous filtration through a hollow fibre; tissue New South Wales Red Cross Transfusion Service, Sydney; host or cells: human packed red blood cells (calmodulin-depleted erythrocyte membranes)
# Description: Natural and synthetic compounds of formula (I) were tested for their ability to influence human erythrocyte plasma membrane Ca^2+ -ATPase.
# Packed cells were obtained from the New South Wales Red Cross Transfusion Service, Sydney. The whole preparation was carried out at 4° C. 1 unit of packed red cells was washed 3 times with isotonic buffer, containing 130 mM KCl, 20 mM Tris-HCl (pH 7.4), and the cells were collected by centrifugation at 4,000 RPM. The cells were haemolysed by the buffer containing 1 mM EDTA, 10 mM Tris-Hcl (pH 7.4), 0.5 mM PMSF (phenylmethyl sulfonyl fluoride). The haemolyzate mixture was passed through the hollow fibre system until the membrane appeared white, and then washed with 10 mM potassium Hepes (pH 7.4). The membranes were collected by centrifugation at 10,000 RPM for 20 min, the membranes were resuspended in storage buffer containing 130 mM KCl, 2 mM dithiothreitol, 0.5 mM MgCl2, 20 mM potassium-Hepes (pH 7.5). The membranes with protein concentration of 1.5-5.4 mg/ml were stored at -80° C. until required.
# Erythrocyte membranes (0.071-0.098 mg/ml) were incubated at 37° C. for one hour in a total volume of 0.4 ml of 65 mM KCl, 20 mM potassium-Hepes, 5 mM MgCl2, 50 μM CaCl2, 0.1 μm calmodulin, 0.1 mM EGTA. The reaction was started by adding 2 mM ATP(pH 7.4). […] The activity of the Mg^2+ -ATPase (assayed in the absence of added CaCl2) was subtracted from the total activity assayed in the presence of Ca^2+. […] A concentrated solution of the test substances was added to the reaction medium before adding ATP.
# [3] = read-out: INHIBITION OF Ca^2+ -ATPase IC50
# [4] = Artemia salina, 24 h, read-out: % Deaths
# T1 sequence (P23634 1-1205 isoform P23634-6): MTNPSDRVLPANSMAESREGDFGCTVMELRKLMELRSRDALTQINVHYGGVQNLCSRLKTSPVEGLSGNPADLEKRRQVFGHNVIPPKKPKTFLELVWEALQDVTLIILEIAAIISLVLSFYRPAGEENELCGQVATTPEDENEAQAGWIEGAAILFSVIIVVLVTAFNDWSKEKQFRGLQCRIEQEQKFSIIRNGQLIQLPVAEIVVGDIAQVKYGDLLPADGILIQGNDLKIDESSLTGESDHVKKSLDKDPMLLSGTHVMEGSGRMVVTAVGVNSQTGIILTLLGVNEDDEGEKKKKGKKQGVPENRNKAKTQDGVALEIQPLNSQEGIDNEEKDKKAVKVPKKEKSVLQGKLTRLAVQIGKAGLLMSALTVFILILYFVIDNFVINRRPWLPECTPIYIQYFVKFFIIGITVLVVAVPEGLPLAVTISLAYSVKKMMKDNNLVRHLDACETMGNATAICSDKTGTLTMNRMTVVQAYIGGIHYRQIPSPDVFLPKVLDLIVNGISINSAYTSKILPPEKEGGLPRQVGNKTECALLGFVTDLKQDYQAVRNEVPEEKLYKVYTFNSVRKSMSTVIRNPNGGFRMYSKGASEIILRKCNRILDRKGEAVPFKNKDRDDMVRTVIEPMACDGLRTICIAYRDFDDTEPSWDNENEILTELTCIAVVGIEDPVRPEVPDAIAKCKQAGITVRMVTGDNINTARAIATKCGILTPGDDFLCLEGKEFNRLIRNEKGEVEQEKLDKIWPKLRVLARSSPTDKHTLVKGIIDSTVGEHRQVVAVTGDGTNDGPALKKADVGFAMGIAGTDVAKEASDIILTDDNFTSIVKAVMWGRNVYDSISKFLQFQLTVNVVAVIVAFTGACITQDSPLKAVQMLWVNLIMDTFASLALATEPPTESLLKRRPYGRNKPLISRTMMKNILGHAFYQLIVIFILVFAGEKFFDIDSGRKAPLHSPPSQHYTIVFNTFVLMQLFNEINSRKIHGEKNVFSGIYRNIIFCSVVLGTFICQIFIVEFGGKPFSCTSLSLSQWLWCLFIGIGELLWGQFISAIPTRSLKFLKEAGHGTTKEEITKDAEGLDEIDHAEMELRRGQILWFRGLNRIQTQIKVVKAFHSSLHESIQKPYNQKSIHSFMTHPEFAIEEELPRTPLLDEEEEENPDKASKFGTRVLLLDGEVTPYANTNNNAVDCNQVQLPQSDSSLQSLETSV
# T1 sequence (P35613 140-385 partner limits assumed): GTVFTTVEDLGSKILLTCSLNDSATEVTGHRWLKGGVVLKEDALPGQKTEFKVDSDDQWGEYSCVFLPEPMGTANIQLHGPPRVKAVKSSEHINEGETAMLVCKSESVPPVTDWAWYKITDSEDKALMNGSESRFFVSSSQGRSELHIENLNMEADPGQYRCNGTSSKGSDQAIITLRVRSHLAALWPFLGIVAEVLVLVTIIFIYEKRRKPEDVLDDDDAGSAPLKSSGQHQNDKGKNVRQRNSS
inhibition at 100 µM ([2]; at 100 μM) [%],"IC50 [2, 3] [µM]",Molecule,"LC50 ([1]; Artemia salina, 24 hours)",further results
–,–,"Cc1c(O)cc(CCCCCCCCc2cc(O)c(C)c(O)c2)cc1O [1,8-bis(3,5-dihydroxy-4-methylphenyl)octane]",> 25 µM and > 9 µg/mL,–
–,–,"Cc1c(O)cc(CCCCCCCCCCc2cc(O)c(C)c(O)c2)cc1O [1,10-bis(3,5-dihydroxy-4-methylphenyl)decane]",> 25 µM and > 9.7 µg/mL,–
52,93,"Oc1ccc(CCCCCCCCCCc2ccc(O)cc2)cc1 [1,10-bis(4-hydroxyphenyl)decane]",810 nM and 0.26 µg/mL,–
–,–,"Cc1c(O)cc(CCCCCCCCCCCCc2cc(O)c(C)c(O)c2)cc1O [1,12-bis(3,5-dihydroxy-4-methylphenyl)dodecane]",> 25 µM and > 10 µg/mL,–
–,–,"Oc1ccc(CCCCCCCCCCCCc2ccc(O)cc2)cc1 [1,12-bis(4-hydroxyphenyl)dodecane]",3.8 µM and 1.4 µg/mL,–
84,28,"Oc1ccccc1CCCCCCCCCCCCCCc1ccccc1O [1,14-bis(2-hydroxyphenyl)tetradecane]",1.9 µM and 0.72 µg/mL,–
5,280,"Oc1ccc(CCCCCCCCCCCCCCc2ccc(O)cc2)cc1 [1,14-bis(4-hydroxyphenyl)tetradecane]",7.9 µM and 3.7 µg/mL,–
–,–,Cc1cc(CCCCCCCCCCc2cccc(C)c2O)ccc1O [1-(2-hydroxy-3-methylphenyl)-10-(4-hydroxy-3-methylphenyl)decane],2.2 µM and 0.78 µg/mL,–
–,12,Oc1ccc(CCCCCCCCCCc2ccccc2O)cc1 [1-(2-hydroxyphenyl)-10-(4-hydroxyphenyl)decane],350 nM and 0.11 µg/mL,inhibition at 50 µM [2]: 100%
99,18.8,Oc1ccc(CCCCCCCCCCCCc2ccccc2O)cc1 [1-(2-hydroxyphenyl)-12-(4-hydroxyphenyl)dodecane],54 nM and 0.019 µg/mL,–
60,81,Oc1ccc(CCCCCCCCCCCCCCc2ccccc2O)cc1 [1-(2-hydroxyphenyl)-14-(4-hydroxyphenyl)tetradecane],3.7 µM and 1.4 µg/mL,–
–,–,Oc1ccccc1C1CCCCC1 [2-cyclohexylphenol],> 25 µM and > 4.4 µg/mL,IC50 [2]: 186 µM; inhibition at 100 µM [2]: 28%
85,42,CCCCCCCCCCc1ccccc1O [2-decylphenol],680 nM and 0.16 µg/mL,–
–,–,CCCCCCCCCc1cc(O)c(C)c(O)c1 [2-methyl-5-nonyl-resorcinol],8.3 µM and 2.1 µg/mL,–
32,> 100,CCCCCCCCC(=O)c1ccccc1O [2-nonanoylphenol],630 nM and 0.15 µg/mL,–
–,–,CCCCCCCCc1ccccc1O [2-octylphenol],–,"IC50 [2]: 32 µM; inhibition at 100 µM [2]: 100%; LC50 ([1]; Artemia salina, 24 h): 1.5 µM and 0.31 µg/mL"
76,84,"CC(C)(C)c1cc(O)c(O)c(C(C)(C)C)c1 [3,5-di-tert-butyl-catechol, reference compound]",–,–
–,–,CCCCCCCCCc1cccc(O)c1 [3-nonylphenol],–,"IC50 [2]: 64 µM; inhibition at 100 µM [2]: 69%; LC50 ([1]; Artemia salina, 24 h): 320 nM and 0.07 µg/mL"

inhibition at 100 µM ([2]; at 100 μM) [%],"IC50 [2, 3] [µM]",Molecule,"LC50 ([1]; Artemia salina, 24 hours)",further results
–,–,CCCCCCCCCCc1ccc(O)cc1 [4-decylphenol],–,"IC50 [2]: 170 µM; inhibition at 100 µM [2]: 24%; LC50 ([1]; Artemia salina, 24 h): 270 nM and 0.064 µg/mL"
17,259,"CCCCCCc1ccc(O)cc1O [4-hexylresorcinol, reference compound]",62 µM and 12 µg/mL,–
–,–,CCCCCCCCC(=O)c1ccc(O)cc1 [4-nonanoylphenol],100 nM and 0.024 µg/mL,LC50 ([1]; 24 hours): 0.1 µM
–,–,CCCCCCCCCc1ccc(O)cc1 [4-nonylphenol],–,"IC50 [2]: 114 µM; inhibition at 100 µM [2]: 22%; LC50 ([1]; Artemia salina, 24 h): 400 nM and 0.088 µg/mL"
–,–,"CC(C)(C)CC(C)(C)c1ccc(O)cc1 [4-tert-octylphenol, reference compound]",–,IC50 [2]: 60 µM; inhibition at 100 µM [2]: 94%
30,135,CCCCCCCCCCc1cc(O)cc(O)c1 [5-decylresorcinol],54 µM and 15 µg/mL,–
–,–,CCCCCCCCCCCCCCCCCc1cc(O)cc(O)c1 [5-heptadecylresorcinol],> 100 µM and > 18 µg/mL,–
44,108,CCCCCCCCCc1cc(O)cc(O)c1 [5-nonylresorcinol],> 100 µM and > 18 µg/mL,–
–,–,"CCCCCc1cc(O)cc(O)c1 [5-pentylresorcinol (olivetol), 5-pentylresorcinol, reference compound]",–,"LC50 ([1]; Artemia salina, 24 h): > 100 µM and > 18 µg/mL"
–,–,CCCCCCCCCCCCc1cc2c(C)cc(=O)oc2cc1O [6-dodecyl-7-hydroxy-4-methylcoumarin],> 25 µM and > 8.1 µg/mL,–
69,66,"Cc1cc(C(C)(C)C)c(O)c(C(C)(C)C)c1 [BHT, 2,6-di-tert-butyl-4-methylphenol, reference compound]",–,–
–,–,"C[S+](C)[O-] [DMSO, dimethyl sulfoxide]",–,"toxicity to brine shrimp (in words) ([1]; 24 hours): No toxicity towards brine shrimp was observed; mortality at 1 % [1, 4]: 0%; mortality at 2 % [1, 4]: 0%; mortality at 3 % [1, 4]: 0%; mortality at 4 % [1, 4]: 0%; mortality at 5 % [1, 4]: 9%; mortality at 7 % [1, 4]: 12%; mortality at 9 % [1, 4]: 18%; mortality at 11 % [1, 4]: 57%; mortality at 13 % [1, 4]: 96%; mortality at 15 % [1, 4]: 100%; mortality at 20 % [1, 4]: 100%; mortality at 25 % [1, 4]: 100%; LC50 brine shrimp, solvent ([1]; solvent): 11 % v/v"
35,> 100,"Oc1cc(O)cc(CCCCCCCCCCCCCCc2cc(O)cc(O)c2)c1 [bisnorstriatol, 1,14-bis(3,5-dihydroxyphenyl)tetradecane]",40 µM and 17 µg/mL,inhibition at 500 µM ([2]; at 500 μM): 69.1%; toxicity to brine shrimp (in words) ([1]; 24 hours): relatively low toxicity
60,85,"CCCCCCCCCCc1cc(O)cc(O)c1C(=O)OCC [ethyl 2,4-dihydroxy-6-decylbenzoate]",2.3 µM and 0.75 µg/mL,–
73,62,"CCCCCCCCCc1cc(O)cc(O)c1C(=O)OCC [ethyl 2,4-dihydroxy-6-nonylbenzoate]",2.6 µM and 0.8 µg/mL,–
–,17,"Cc1c(O)cc(CCCCCCCCCCCCCCc2cc(O)cc(O)c2)cc1O [grebustol-A, 1-(3,5-dihydroxy-phenyl)-14-(3,5-dihydroxy-4-methylphenyl)tetradecane]",–,inhibition at 50 µM [2]: 100%
90,50,"Oc1cc(O)cc(CCCCC/C=C\CCCCCCCc2cc(O)cc(O)c2)c1 [grebustol-B, 1,14-bis(3,5-dihydroxyphenyl)tetradec-Z-6-ene]",–,Ca^2+ -ATPase inhibitory activity (in words) [2]: weaker

Molecule,inhibition at 100 µM ([2]; at 100 μM) [%],"IC50 [2, 3] [µM]","LC50 ([1]; Artemia salina, 24 hours)",further results
"Cc1cc(Cc2cc(C)cc(C(C)(C)C)c2O)c(O)c(C(C)(C)C)c1 [2,2'-methylenebis(4-methyl-6-tert-butylphenol), reference compound]",–,45,–,inhibition at 100 µM [2]: 74%
"CC(C)(C)c1cc(C(C)(C)C)c(O)c(C(C)(C)C)c1 [2,4,6-tri-tert-butylphenol, reference compound]",79,–,–,IC50 [2]: 15 µM
Oc1ccc(C2CCCCC2)cc1 [4-cyclohexylphenol],16,–,–,"IC50 [2]: 271 µM; LC50 ([1]; Artemia salina, 24 h): > 25 µM and > 4.4 µg/mL"
"nonylphenol [nonylphenol (commercial), reference compound]",–,27.5,–,INHIBITION OF Ca^2+ -ATPase PERCENT (%) ([2]; at 100 μM): 100%
